Legend:
rice = experiment: Test B flood test rice; format: in vivo, Oryza sativa
How it was run: (§1)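 Each value is a visual injury score relative to controls, with 10 meaning complete control and 0 no effect. Evaluation took place twelve to sixteen days after the 2-leaf-stage plants were treated and kept in the greenhouse.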

wild oat = experiment: Test B pre/postemergence wild oat; format: in vivo, Avena fatua
How it was run: (§2)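 Herbicidal effect was estimated by eye on a ten-point control scale after plants spent twelve to sixteen days in a greenhouse following soil or foliar treatment. Foliar sprays targeted plants at one to four leaves; all doses were formulated in a non-phytotoxic solvent with surfactant.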

blackgrass = experiment: Test B pre/postemergence blackgrass; format: in vivo, Alopecurus myosuroides
How it was run: as §2

velvetleaf = experiment: Test B pre/postemergence velvetleaf; format: in vivo, Abutilon theophrasti
How it was run: as §2

corn = experiment: Test B pre/postemergence corn; format: in vivo, Zea mays
How it was run: as §2

wheat = experiment: Test B pre/postemergence wheat; format: in vivo, Triticum aestivum
How it was run: as §2

crabgrass = experiment: Test B pre/postemergence crabgrass; format: in vivo, Digitaria sanguinalis
How it was run: as §2

giant foxtail = experiment: Test B pre/postemergence giant foxtail; format: in vivo, Setaria faberii
How it was run: as §2

soybean = experiment: Test B pre/postemergence soybean; format: in vivo, Glycine max
How it was run: as §2

smallflower flatsedge = experiment: Test B flood test smallflower flatsedge; format: in vivo, Cyperus difformis
How it was run: as §1

surinam grass = experiment: Test B pre/postemergence surinam grass; format: in vivo, Brachiaria decumbens
How it was run: as §2

cocklebur = experiment: Test B pre/postemergence cocklebur; format: in vivo, Xanthium strumarium
How it was run: as §2

pigweed = experiment: Test B pre/postemergence pigweed; format: in vivo, Amaranthus retroflexus
How it was run: as §2

bamyardgrass = experiment: Test B flood test barnyardgrass; format: in vivo, Echinochloa crus-galli
How it was run: as §1

morningglory = experiment: Test B pre/postemergence morningglory; format: in vivo, Ipomoea hederacea
How it was run: as §2

bedstraw = experiment: Test B pre/postemergence bedstraw; format: in vivo, Galium aparine; settings: Postemergence, Rate 62 g/ha; scale 0 to 10, 0 is no effect, 10 is complete control
How it was run: as §2

[1] = Rate 62 g/ha, flood test species, Pre-emergence, visual evaluation after twelve to sixteen days
[2] = Rate 125 g/ha, under heading Pre-emergence, flood test species, visual evaluation after twelve to sixteen days
[3] = Rate 250 g/ha, Pre-emergence (flood test species), scale 0 to 10, 0 is no effect, 10 is complete control
[4] = Rate 500 g/ha, Pre-emergence section of Table B, 0 to 10 scale (0 no effect, 10 complete control)
[5] = Postemergence, Rate 62 g/ha, scale 0 to 10, 0 is no effect, 10 is complete control
[6] = Postemergence, Rate 125 g/ha, scale of 0 to 10 where 0 is no effect and 10 is complete control
[7] = Preemergence, Rate 62 g/ha, scale of 0 to 10 where 0 is no effect and 10 is complete control
[8] = Preemergence, Rate 125 g/ha, scale of 0 to 10 where 0 is no effect and 10 is complete control
[9] = Preemergence, Rate 250 g/ha, scale 0 to 10 (0 no effect, 10 complete control)
[10] = Preemergence, Rate 500 g/ha, scale of 0 to 10 where 0 is no effect and 10 is complete control
[11] = Rate 500 g/ha, Postemergence, scale 0 to 10, 0 is no effect, 10 is complete control
[12] = Postemergence, Rate 250 g/ha, scale of 0 to 10, 0 is no effect, 10 is complete control

Structure (SMILES): CC[C@H](C)n1c(=O)on(C(=O)N(c2ccc(Cl)cc2)C(C)C)c1=O [Compound 664]
- Plant response rating, Rice (0 to 10 scale, 0 is no effect, 10 is complete control) (rice; [1]): 0
- Rice plant response rating (0 to 10 scale, 0 is no effect, 10 is complete control) (rice; [2]): 0
- Rice plant response rating (rice; [3]): 0
- Rice plant response rating (rice; [4]): 0
- Plant response rating, Wild oats (wild oat; [5]): 0
- Wild oats plant response rating (wild oat; [6]): 0
- Wild oats plant response rating (wild oat; [7]): 0
- Wild oats plant response rating (wild oat; [8]): 3
- Plant response rating, Wild oats (wild oat; [9]): 3
- Plant response rating, Wild oats (wild oat; [10]): 7
- Wild oats plant response rating (wild oat; [11]): 7
- Plant response rating, Blackgrass (blackgrass; [5]): 4
- Blackgrass plant response rating (blackgrass; [6]): 7
- Blackgrass plant response rating (blackgrass; [12]): 9
- Blackgrass plant response rating (blackgrass; [7]): 5
- Blackgrass plant response rating (blackgrass; [8]): 6
- Plant response rating, Blackgrass (blackgrass; [9]): 6
- Plant response rating, Blackgrass (blackgrass; [10]): 8
- Blackgrass plant response rating (blackgrass; [11]): 9
- Plant response rating, Velvetleaf (velvetleaf; [5]): 0
- Velvetleaf plant response rating (velvetleaf; [6]): 0
- Velvetleaf plant response rating (velvetleaf; [7]): 0
- Velvetleaf plant response rating (velvetleaf; [8]): 0
- Plant response rating, Velvetleaf (velvetleaf; [9]): 5
- Plant response rating, Velvetleaf (velvetleaf; [10]): 5
- Velvetleaf plant response rating (velvetleaf; [11]): 6
- Plant response rating, Corn (corn; [5]): 0
- Corn plant response rating (corn; [6]): 0
- Corn plant response rating (corn; [12]): 0
- Corn plant response rating (corn; [7]): 0
- Corn plant response rating (corn; [8]): 0
- Plant response rating, Corn (corn; [9]): 0
- Plant response rating, Corn (corn; [10]): 0
- Corn plant response rating (corn; [11]): 0
- Plant response rating, Wheat (wheat; [5]): 0
- Wheat plant response rating (wheat; [6]): 0
- Wheat plant response rating (wheat; [7]): 0
- Wheat plant response rating (wheat; [8]): 0
- Plant response rating, Wheat (wheat; [9]): 0
- Plant response rating, Wheat (wheat; [10]): 5
- Wheat plant response rating (wheat; [11]): 2
- Plant response rating, Crabgrass (crabgrass; [5]): 0
- Crabgrass plant response rating (crabgrass; [6]): 1
- Crabgrass plant response rating (crabgrass; [12]): 9
- Crabgrass plant response rating (crabgrass; [7]): 4
- Crabgrass plant response rating (crabgrass; [8]): 8
- Plant response rating, Crabgrass (crabgrass; [9]): 9
- Plant response rating, Crabgrass (crabgrass; [10]): 10
- Crabgrass plant response rating (crabgrass; [11]): 9
- Plant response rating, Giant foxtail (giant foxtail; [5]): 2
- Giant foxtail plant response rating (giant foxtail; [6]): 6
- Giant foxtail plant response rating (giant foxtail; [12]): 9
- Giant foxtail plant response rating (giant foxtail; [7]): 9
- Giant foxtail plant response rating (giant foxtail; [8]): 10
- Plant response rating, Giant foxtail (giant foxtail; [9]): 10
- Plant response rating, Giant foxtail (giant foxtail; [10]): 10
- Giant foxtail plant response rating (giant foxtail; [11]): 9
- Plant response rating, Soybean (soybean; [5]): 3
- Soybean plant response rating (soybean; [6]): 4
- Soybean plant response rating (soybean; [7]): 0
- Soybean plant response rating (soybean; [8]): 0
- Plant response rating, Soybean (soybean; [9]): 0
- Plant response rating, Soybean (soybean; [10]): 0
- Plant response rating, S. Flatsedge (0 to 10 scale, 0 is no effect, 10 is complete control) (smallflower flatsedge; [1]): 0
- S. Flatsedge plant response rating (0 to 10 scale, 0 is no effect, 10 is complete control) (smallflower flatsedge; [2]): 0
- S. Flatsedge plant response rating (smallflower flatsedge; [3]): 0
- S. Flatsedge plant response rating (smallflower flatsedge; [4]): 0
- Plant response rating, B. signalgrass (surinam grass; [5]): 0
- Plant response rating, B. signalgrass (surinam grass; [6]): 0
- B. signalgrass plant response rating (surinam grass; [12]): 4
- B. signalgrass plant response rating (surinam grass; [7]): 1
- B. signalgrass plant response rating (surinam grass; [8]): 5
- Plant response rating, B. signalgrass (surinam grass; [9]): 5
- Plant response rating, B. signalgrass (surinam grass; [10]): 8
- B. signalgrass plant response rating (surinam grass; [11]): 7
- Plant response rating, Cocklebur (cocklebur; [5]): 0
- Cocklebur plant response rating (cocklebur; [6]): 0
- Cocklebur plant response rating (cocklebur; [12]): 2
- Cocklebur plant response rating (cocklebur; [7]): 0
- Cocklebur plant response rating (cocklebur; [8]): 0
- Plant response rating, Cocklebur (cocklebur; [9]): 0
- Plant response rating, Cocklebur (cocklebur; [10]): 3
- Cocklebur plant response rating (cocklebur; [11]): 6
- Plant response rating, Redroot pigweed (pigweed; [5]): 0
- Redroot pigweed plant response rating (pigweed; [6]): 2
- Redroot pigweed plant response rating (pigweed; [7]): 2
- Redroot pigweed plant response rating (pigweed; [8]): 7
- Plant response rating, Redroot pigweed (pigweed; [9]): 7
- Plant response rating, Redroot pigweed (pigweed; [10]): 10
- Redroot pigweed plant response rating (pigweed; [11]): 6
- Plant response rating, Barnyardgrass (0 to 10 scale, 0 is no effect, 10 is complete control) (bamyardgrass; [1]): 0
- Barnyardgrass plant response rating (0 to 10 scale, 0 is no effect, 10 is complete control) (bamyardgrass; [2]): 0
- Barnyardgrass plant response rating (bamyardgrass; [3]): 0
- Barnyardgrass plant response rating (bamyardgrass; [4]): 0
- Plant response rating, Morningglory (morningglory; [5]): 0
- Morningglory plant response rating (morningglory; [6]): 2
- Morningglory plant response rating (morningglory; [12]): 9
- Morningglory plant response rating (morningglory; [7]): 0
- Morningglory plant response rating (morningglory; [8]): 0
- Plant response rating, Morningglory (morningglory; [9]): 0
- Plant response rating, Morningglory (morningglory; [10]): 4
- Morningglory plant response rating (morningglory; [11]): 10
- Plant response rating, Bedstraw (bedstraw): 0
